Literature values, collected in patent US10301318B2, “Neuroactive compounds and methods of using the same” (THE GENERAL HOSPITAL CORPORATION, priority 2014, dated 2019).

Tested on: mice
Conditions: literature

In the case of O=C(CCCN1CCC(O)(c2ccc(Cl)cc2)CC1)c1ccc(F)cc1 [haloperidol], the “reversal of PCP-induced hyperlocomotion” value is listed as “can be reversed”.
